Assay results from US5155115A, “Thienopyridine derivatives” (Kyowa Hakko Kogyo Co., Ltd., priority 1991, dated 1992).

Key:
[1] = test system: dd-Y-strain male mice; assay: Acute Toxicity (minimum lethal dose); assay type: in vivo; settings: mortality for 7 days
Experimental: A test compound was intraperitoneally and orally administered to dd-Y-strain male mice weighing 20 to 25 g. The minimum lethal dose (MLD) was determined by observing the mortality for 7 days after the administration.

[2] = test system: Cisplatin-induced Vomiting; assay: Activity Against Cisplatin-induced Vomiting; assay type: in vivo, Suncus murinus; settings: 1.0 mg/kg i.p., 30 minutes before cisplatin 40 mg/kg i.p., n = 10
Experimental: Activity Against Cisplatin-induced Vomiting
In one group, 5 to 10 female and male Suncus murinus animals weighing 23 to 68 g were used. According to the method of Matsuki et al. [Japan J. Pharmacol., 48, 303 (1988)], each animal was put into a separate metal net cage (width 15 cm ×length 21 cm ×height 15 cm). One hour after, a test compound or physiological saline (control) was intraperitoneally (i.p.) administered in a dose of 10 μl/g of body weight. Further 30 minutes after administration of the test compound or physiological saline (control), 40 mg/kg of cisplatin was intraperitoneally administered. Taking no account of vomiting caused for 5 minytes after administration of cisplatin, a time period (latency) for the first vomiting and the number of frequencies (episodes) of vomiting caused for the period of 5 to 120 minutes after administration were determined. The latency and the number of frequencies in the test compound administered group were compared with those in the control group. The test of significance was performed by Student's t-test.

[3] = test system: 5-HT3 receptor; assay: 5-HT3 receptor binding test ([^3 H] quipazine, NG108-15 cell membrane fraction); design: species or system rat; settings: 2 nM [^3 H] quipazine, 37° C., 60 minutes, pH 7.5; for Inhibition Rate (%) (concentration) 10^-7 M: 10^-7 M test compound; for Inhibition Rate (%) (concentration) 10^-8 M: 10^-8 M test compound
Experimental: 5-HT3 receptor binding test
Using rat neutroblastoma-glicoma NG108-15 cell membrane fraction, the binding activities of the test compounds to 5-HT3 receptor were examined.
A membrane fraction of NG108-15 cells was prepared according to the method of Neijt et al. [Naunyn-Schmiedeberg's Arch. Pharmacol., 337, 493 (1988)].
The receptor binding test was performed using [^3 H] quipazine [J. Neurochem., 52, 1787 (1989)], a high affinity ligand to 5-HT3 receptor.
A membrane fraction obtained from 4×10^5 NG108-15 cells was suspended in 1 ml of 20 mM Tris-hydrochloride buffer (pH 7.5) (hereinafterreferred to as Buffer) containing 154 mM sodium chloride. Then, 2 nM [^3 H] quipazine (2519.7 GBq/mmol; NEN CO.) and various concentrations of the test compound were added to the suspension followed by incubating at 37° C. for 60 minutes. 4 ml of ice-cold Buffer was added to terminate the reaction and then the mixture was filtered through GF/C glass fiber filter (Whatmann Co., Ltd.). The filter was washed 5 times with 2 ml of ice-cold Buffer, and put in a scintillation vial containing 8 ml of Scintisol EX-H (Wako Pure Chemicals, Inc.). Radioactivity on the filter was counted in a liquid scintillation counter (TRI-CARB 2200CA; Packard Co., Ltd.).
An inhibition of the [^3 H] quipazine binding by the test compound was estimated according to the equation; [formula]
"Total binding" is [^3 H] quipazine-binding in the absence of test compound and "non-specific binding" is [^3 H] quipazine-binding in the presence of 10 μM MDL7222 5-HT3 antagonist [Naunyn-Schmiedeberg's Arch. Pharmacol., 326, 36 (1984)].

| SMILES | MLD (mg/kg) i.p. [1] | MLD (mg/kg) p.o. [1] | Number of Vomiting episodes (mean ± S.E.M.) ([2]; 5 to 120 minutes after cisplatin, control 29.2 ± 4.5 (n = 5)) | Latency (min.) (mean ± S.E.M.) ([2]; time to first vomiting, control 28.6 ± 6.3 (n = 5)) | Inhibition Rate (%) (concentration) 10^-7 M [3] | Inhibition Rate (%) (concentration) 10^-8 M [3] |
| --- | --- | --- | --- | --- | --- | --- |
| CCCCn1c(=O)c(C(=O)O[C@H]2C[C@H]3CC[C@@H](C2)N3C)c(O)c2ccsc21 [Compound 6, Endo-8-methyl-8-azabicyclo[3.2.1]oct-3-yl 7-(n-butyl)-6,7-dihydro-4-hydroxy-6-oxothieno[2,3-b]pyridine-5-carboxylate] | > 100 mg/kg | > 100 mg/kg |  |  |  |  |
| CN1[C@@H]2CC[C@H]1C[C@@H](NC(=O)c1c(O)c3sccc3[nH]c1=O)C2 [Compound 1, Endo-N-(8-methyl-8-azabicyclo[3.2.1]oct-3-yl)-4,5-dihydro-7-hydroxy-5-oxothieno[3,2-b]pyridine-6-carboxamide] | > 100 mg/kg | > 300 mg/kg | 9.3 ± 2.2 | 66.0 ± 10.4 min | 94% | 44% |
| CCCCn1c(=O)c(C(=O)O[C@H]2C[C@H]3CC[C@@H](C2)N3C)c(O)c2sccc21 [Compound 4, Endo-8-methyl-8-azabicyclo[3.2.1]oct-3-yl 4-(n-butyl)-4,5-dihydro-7-hydroxy-5-oxothieno[3,2-b]pyridine-6-carboxylate] | > 50 mg/kg | > 100 mg/kg |  |  |  |  |
| CN1[C@@H]2CC[C@H]1C[C@@H](NC(=O)c1c(O)c3ccsc3[nH]c1=O)C2 [Compound 7, Endo-N-(8-methyl-8-azabicyclo[3.2.1]oct-3-yl)-6,7-dihydro-4-hydroxy-6-oxothieno[2,3-b]pyridine-5-carboxamide] |  |  |  |  | 71% | 23% |
| CCCCn1c(=O)c(C(=O)N[C@H]2C[C@H]3CC[C@@H](C2)N3C)c(O)c2ccsc21 [Compound 5, Endo-N-(8-methyl-8-azabicyclo[3.2.1]oct-3-yl)-7-(n-butyl)-6,7-dihydro-4-hydroxy-6-oxothieno[2,3-b]pyridine-5-carboxamide] | > 100 mg/kg | > 300 mg/kg |  |  | 105% | 100% |
| CN1[C@@H]2CCC[C@H]1C[C@@H](NC(=O)c1c(O)c3ccsc3[nH]c1=O)C2 [Compound 9, Endo-N-(9-methyl-9-azabicyclo[3.3.1]non-3-yl)-6,7-dihydro-4-hydroxy-6-oxothieno[2,3-b]pyridine-5-carboxamide] | > 50 mg/kg | > 300 mg/kg |  |  | 69% | 12% |
| CCCCn1c(=O)c(C(=O)N[C@H]2C[C@H]3CC[C@@H](C2)N3C)c(O)c2sccc21 [Compound 3, Endo-N-(8-methyl-8-azabicyclo[3.2.1]oct-3-yl)-4-(n-butyl)-4,5-dihydro-7-hydroxy-5-oxothieno[3,2-b]pyridine-6-carboxamide] |  | > 200 mg/kg |  |  | 101% | 98% |
| CN1[C@@H]2CC[C@H]1C[C@@H](OC(=O)c1c(O)c3ccsc3[nH]c1=O)C2 [Compound 8, Endo-8-methyl-8-azabicyclo[3.2.1]oct-3-yl 6,7-dihydro-4-hydroxy-6-oxothieno[2,3-b]pyridine-5-carboxylate] | > 100 mg/kg | > 300 mg/kg |  |  |  |  |
